Literature values as cited in patent US20230338329A1, “C[…] COMPOSITION AND METHOD OF MANUFACTURING” (priority 2022, published 2023).

Settings: hydrophilic-lipophilic balance value

Compound	HLB
Sorbitan monooleate [Span 80]	4.9
polyoxyethylene sorbitan monooleate	15
CCCCCCCCCCCCOS(=O)(=O)[O-].[Na+] [sodium lauryl sulfate]	40
alkyl phenyl polyoxyethylene ether	14.5
